Measurements from PubChem BioAssay AID252 (DTP/NCI, 2004).
Values joined by “and” are separate entries in the source; they are usually repeats but may differ in a detail not shown here. Equal values may be shown once. Toxic doses and inconclusive results are not listed. How the source made its calls: active means survival T/C of 150% or more; inactive means T/C below 125% in these data.

System: BDF1 mice, intracerebral L1210 leukemia, survival T/C
Experiment: NCI In Vivo Anticancer Drug Screen. Data for tumor model L1210 Leukemia (intracerebral) in B6D2F1 (BDF1) mice
Details: higher = longer survival
In short: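 Mice carrying transplanted tumour were dosed with compound; survival was recorded and expressed as treated-group value (T) divided by vehicle-control value (C).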

Measured: T/C

O=NN(CCF)C(=O)NC1CCC(NC(=O)N(CCF)N=O)CC1 (stereo unspecified)
inactive: endpoint: mean survival time, dose: 10.0 mg/kg/injection, schedule: Q01DX001 (ip), vehicle: other 110 % of control | endpoint: mean survival time, dose: 25.0 mg/kg/injection, schedule: Q01DX001 (ip), vehicle: other 120 % of control
active: endpoint: mean survival time, dose: 30.0 mg/kg/injection, schedule: Q01DX001 (ip), vehicle: other 155 % of control | endpoint: mean survival time, dose: 40.0 mg/kg/injection, schedule: Q01DX001 (ip), vehicle: other 193 % of control | endpoint: mean survival time, dose: 50.0 mg/kg/injection, schedule: Q01DX001 (ip), vehicle: other 224 % of control | endpoint: mean survival time, dose: 60.0 mg/kg/injection, schedule: Q01DX001 (ip), vehicle: other 202 % of control | endpoint: mean survival time, dose: 80.0 mg/kg/injection, schedule: Q01DX001 (ip), vehicle: other 293 % of control and 329 % of control | endpoint: mean survival time, dose: 110.0 mg/kg/injection, schedule: Q01DX001 (ip), vehicle: other 294 % of control | endpoint: mean survival time, dose: 120.0 mg/kg/injection, schedule: Q01DX001 (ip), vehicle: other 319 % of control and 334 % of control | endpoint: mean survival time, dose: 180.0 mg/kg/injection, schedule: Q01DX001 (ip), vehicle: other 277 % of control | endpoint: mean survival time, dose: 187.0 mg/kg/injection, schedule: Q01DX001 (ip), vehicle: other 170 % of control | endpoint: mean survival time, dose: 240.0 mg/kg/injection, schedule: Q01DX001 (ip), vehicle: other 262 % of control

O=C1NC2(CCCCC2)C(=O)N1CCN(CCCl)CCCl
inactive: endpoint: mean survival time, dose: 0.78 mg/kg/injection, schedule: Q01DX009 (ip), vehicle: saline 101 % of control | endpoint: mean survival time, dose: 1.56 mg/kg/injection, schedule: Q01DX009 (ip), vehicle: saline 89 % of control | endpoint: mean survival time, dose: 3.12 mg/kg/injection, schedule: Q01DX009 (ip), vehicle: saline 95 % of control | endpoint: mean survival time, dose: 6.25 mg/kg/injection, schedule: Q01DX009 (ip), vehicle: saline 102 % of control | endpoint: mean survival time, dose: 12.5 mg/kg/injection, schedule: Q01DX009 (ip), vehicle: saline 91 % of control

O=NN(CCCl)C(=O)NC1CCCC1
inactive: endpoint: mean survival time, dose: 220.0 mg/kg/injection, schedule: Q01DX001 (ip), vehicle: saline 101 % of control
active: endpoint: mean survival time, dose: 18.0 mg/kg/injection, schedule: Q01DX001 (ip), vehicle: saline 170 % of control | endpoint: mean survival time, dose: 19.0 mg/kg/injection, schedule: Q01DX001 (ip), vehicle: saline 163 % of control and 234 % of control | endpoint: mean survival time, dose: 25.0 mg/kg/injection, schedule: Q01DX001 (ip), vehicle: saline 157 % of control | endpoint: mean survival time, dose: 28.0 mg/kg/injection, schedule: Q01DX001 (ip), vehicle: saline 264 % of control | endpoint: mean survival time, dose: 30.0 mg/kg/injection, schedule: Q01DX001 (ip), vehicle: saline 157 % of control and 190 % of control | endpoint: mean survival time, dose: 38.0 mg/kg/injection, schedule: Q01DX001 (ip), vehicle: saline 231 % of control and 244 % of control | endpoint: mean survival time, dose: 42.0 mg/kg/injection, schedule: Q01DX001 (ip), vehicle: saline 250 % of control | endpoint: mean survival time, dose: 44.0 mg/kg/injection, schedule: Q01DX001 (ip), vehicle: saline 234 % of control | endpoint: mean survival time, dose: 50.0 mg/kg/injection, schedule: Q01DX001 (ip), vehicle: saline 333 % of control | endpoint: mean survival time, dose: 64.0 mg/kg/injection, schedule: Q01DX001 (ip), vehicle: saline 278 % of control | endpoint: mean survival time, dose: 67.0 mg/kg/injection, schedule: Q01DX001 (ip), vehicle: saline 209 % of control | endpoint: mean survival time, dose: 75.0 mg/kg/injection, schedule: Q01DX001 (ip), vehicle: saline 431 % of control and 485 % of control | endpoint: mean survival time, dose: 100.0 mg/kg/injection, schedule: Q01DX001 (ip), vehicle: saline 257 % of control and 284 % of control | endpoint: mean survival time, dose: 150.0 mg/kg/injection, schedule: Q01DX001 (ip), vehicle: saline 273 % of control and 342 % of control and 363 % of control

OCCN1CCN(CC/C=C2/c3ccccc3Sc3ccc(C(F)(F)F)cc32)CC1
inactive: endpoint: mean survival time, dose: 3.12 mg/kg/injection, schedule: Q04DX003 (ip), vehicle: saline 113 % of control | endpoint: mean survival time, dose: 6.25 mg/kg/injection, schedule: Q04DX003 (ip), vehicle: saline 111 % of control | endpoint: mean survival time, dose: 12.5 mg/kg/injection, schedule: Q04DX003 (ip), vehicle: saline 113 % of control | endpoint: mean survival time, dose: 25.0 mg/kg/injection, schedule: Q04DX003 (ip), vehicle: saline 100 % of control

O=C(Nc1ccc(C2=NCCN2)cc1)c1cccc(C(=O)Nc2ccc(C3=NCCN3)cc2)c1
inactive: endpoint: mean survival time, dose: 31.0 mg/kg/injection, schedule: Q01DX Z (ip), vehicle: water 89 % of control

O=C1C=C(N2CC2)C(=O)C(N2CC2)=C1N1CC1
inactive: endpoint: mean survival time, dose: 0.01 mg/kg/injection, schedule: Q01DX009 (ip), vehicle: saline 94 % of control | endpoint: mean survival time, dose: 0.02 mg/kg/injection, schedule: Q01DX009 (ip), vehicle: saline 100 % of control | endpoint: mean survival time, dose: 0.05 mg/kg/injection, schedule: Q01DX009 (ip), vehicle: saline 116 % of control

O=c1[nH]c(=O)n(C2CC(O)C(CO)O2)cc1F (stereo unspecified)
active: endpoint: mean survival time, dose: 86.0 mg/kg/injection, schedule: Q01DX015 (ip), vehicle: saline 160 % of control
inactive: endpoint: mean survival time, dose: 239.0 mg/kg/injection, schedule: Q01DX001 (ip), vehicle: saline 109 % of control | endpoint: mean survival time, dose: 364.0 mg/kg/injection, schedule: Q01DX001 (ip), vehicle: saline 104 % of control | endpoint: mean survival time, dose: 543.0 mg/kg/injection, schedule: Q01DX001 (ip), vehicle: saline 117 % of control

O=NN(CCCl)C(=O)CCCCC(=O)N(CCCl)N=O
inactive: endpoint: mean survival time, dose: 44.0 mg/kg/injection, schedule: Q01DX001 (ip), vehicle: carboxymethylcellulose (CMC) 95 % of control | endpoint: mean survival time, dose: 67.0 mg/kg/injection, schedule: Q01DX001 (ip), vehicle: carboxymethylcellulose (CMC) 96 % of control | endpoint: mean survival time, dose: 100.0 mg/kg/injection, schedule: Q01DX001 (ip), vehicle: carboxymethylcellulose (CMC) 94 % of control

O=c1n(CC2CO2)c(=O)n(CC2CO2)c(=O)n1CC1CO1 (stereo unspecified)
active: endpoint: median survival time, dose: 40.0 mg/kg/injection, schedule: Q01DX009 (ip), vehicle: saline 151 % of control
inactive: endpoint: median survival time, dose: 70.0 mg/kg/injection, schedule: Q01DX009 (ip), vehicle: saline 121 % of control | endpoint: median survival time, dose: 80.0 mg/kg/injection, schedule: Q01DX009 (ip), vehicle: saline 121 % of control | endpoint: median survival time, dose: 90.0 mg/kg/injection, schedule: Q01DX009 (ip), vehicle: saline 122 % of control

CC(=O)OC1CCC(NC(=O)N(CCCl)N=O)CC1 (stereo unspecified)
active: endpoint: mean survival time, dose: 24.0 mg/kg/injection, schedule: Q01DX001 (ip), vehicle: other 364 % of control | endpoint: mean survival time, dose: 36.0 mg/kg/injection, schedule: Q01DX001 (ip), vehicle: other 500 % of control | endpoint: mean survival time, dose: 54.0 mg/kg/injection, schedule: Q01DX001 (ip), vehicle: other 423 % of control

O=NN1CCCNC1=O
inactive: endpoint: mean survival time, dose: 75.0 mg/kg/injection, schedule: Q01DX001 (ip), vehicle: carboxymethylcellulose (CMC) 119 % of control | endpoint: mean survival time, dose: 111.0 mg/kg/injection, schedule: Q01DX001 (ip), vehicle: carboxymethylcellulose (CMC) 117 % of control | endpoint: mean survival time, dose: 250.0 mg/kg/injection, schedule: Q01DX001 (ip), vehicle: carboxymethylcellulose (CMC) 91 % of control
active: endpoint: mean survival time, dose: 150.0 mg/kg/injection, schedule: Q01DX001 (ip), vehicle: carboxymethylcellulose (CMC) 153 % of control | endpoint: mean survival time, dose: 167.0 mg/kg/injection, schedule: Q01DX001 (ip), vehicle: carboxymethylcellulose (CMC) 186 % of control

O=NN(CCCl)C(=O)Nc1cccc2cccnc12
inactive: endpoint: mean survival time, dose: 1.0 mg/kg/injection, schedule: Q01DX001 (ip), vehicle: carboxymethylcellulose (CMC) 101 % of control | endpoint: mean survival time, dose: 1.5 mg/kg/injection, schedule: Q01DX001 (ip), vehicle: carboxymethylcellulose (CMC) 103 % of control | endpoint: mean survival time, dose: 2.6 mg/kg/injection, schedule: Q01DX001 (ip), vehicle: carboxymethylcellulose (CMC) 104 % of control | endpoint: mean survival time, dose: 4.0 mg/kg/injection, schedule: Q01DX001 (ip), vehicle: carboxymethylcellulose (CMC) 105 % of control | endpoint: mean survival time, dose: 6.0 mg/kg/injection, schedule: Q01DX001 (ip), vehicle: carboxymethylcellulose (CMC) 101 % of control | endpoint: mean survival time, dose: 9.0 mg/kg/injection, schedule: Q01DX001 (ip), vehicle: carboxymethylcellulose (CMC) 102 % of control | endpoint: mean survival time, dose: 12.0 mg/kg/injection, schedule: Q01DX001 (ip), vehicle: carboxymethylcellulose (CMC) 98 % of control | endpoint: mean survival time, dose: 18.0 mg/kg/injection, schedule: Q01DX001 (ip), vehicle: carboxymethylcellulose (CMC) 98 % of control

CN(N=O)C(=O)NC(=O)N(C)N=O
inactive: endpoint: mean survival time, dose: 27.5 mg/kg/injection, schedule: Q01DX001 (ip), vehicle: carboxymethylcellulose (CMC) 107 % of control | endpoint: mean survival time, dose: 54.0 mg/kg/injection, schedule: Q01DX001 (ip), vehicle: carboxymethylcellulose (CMC) 104 % of control

O=C(Nc1ccc(C2=NCCCN2)cc1)c1ccc(C(=O)Nc2ccc(C3=NCCCN3)cc2)cc1
inactive: endpoint: mean survival time, dose: 1.25 mg/kg/injection, schedule: Q01DX Z (ip), vehicle: carboxymethylcellulose (CMC) 107 % of control | endpoint: mean survival time, dose: 2.5 mg/kg/injection, schedule: Q01DX Z (ip), vehicle: carboxymethylcellulose (CMC) 107 % of control | endpoint: mean survival time, dose: 5.0 mg/kg/injection, schedule: Q01DX Z (ip), vehicle: carboxymethylcellulose (CMC) 114 % of control | endpoint: mean survival time, dose: 31.0 mg/kg/injection, schedule: Q01DX Z (ip), vehicle: carboxymethylcellulose (CMC) 104 % of control

N=c1nc2n(cc1F)[C@@H]1O[C@H](CO)[C@@H](O)[C@@H]1O2
active: endpoint: median survival time, dose: 100.0 mg/kg/injection, schedule: Q01DX009 (ip), vehicle: saline 186 % of control | endpoint: median survival time, dose: 200.0 mg/kg/injection, schedule: Q01DX009 (ip), vehicle: saline 204 % of control | endpoint: median survival time, dose: 400.0 mg/kg/injection, schedule: Q01DX009 (ip), vehicle: saline 344 % of control
